SMILES strings stand for the structures.

A short description of test [1]: Antagonist activity at LPA2 receptor in human isolated platelets assessed as inhibition of TRAP-induced platelet aggregation after 3 mins.
Test [2] is described as follows: Antagonist activity at LPA5 receptor in human isolated platelets assessed as inhibition of hexadecyl-LPA-induced platelet aggregation after 3 mins.

For the compound `COc1cccc(-n2nc(C(=O)O)cc2-c2ccc(C3CCCCC3)c(Cl)c2)c1`, the IC50 in test [1] is greater than 10 µM; in test [2], 2.2 µM.
Turning to `Cc1csc2c(N[C@@H](C)CN3CCN(S(=O)(=O)c4ccc(Cl)c(Cl)c4)CC3)ncnc12`, the half-maximal inhibitory concentration (IC50) in test [2] was greater than 30 µM.
The same measure, in the same setting: the value for `Cc1noc(-c2ccc(CSCCC(=O)O)cc2)c1NC(=O)OC(C)c1ccccc1Cl` (centres undefined) [3-(4-(4-((1-(2-chlorophenyl)ethoxy)carbonylamino)-3-methylisoxazol-5-yl)benzylthio)propanoic acid] was greater than 30 µM.

Broadly, the IC50 is the point on the concentration scale where inhibition reaches its midpoint.

(Values after BindingDB's records for doi:10.1016/j.bmcl.2012.06.057 (Sanofi-Aventis Deutschland, 2012).)
